Laboratory results as given in patent publication US20060281807A1, “Quassinoid compositions for the treatment of cancer and other proliferative diseases” (Tapestry Pharmaceuticals, Inc., priority 2005, published 2006).

Tests used:
SK-N-AS = assay: MTT cytotoxicity assay (% kill), SK-N-AS; type: cell-based, human; conditions: 1 h exposure, MTT after five days
In short: (§1)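 Cells grown in 10% FBS Eagles MEM at 37 °C, 5% CO2, sextuplicate wells, exposed to compound at 0.1 or 1.0 μg/mL for 1 h or 24 h. After rinsing, they were cultured 5 more days. Viable cells then measured by MTT, expressed as % kill.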

LS-174T = assay: MTT cytotoxicity assay (% kill), LS-174T; type: cell-based, human; conditions: 1 h exposure, MTT after five days
In short: as §1

HuTu-80 = assay: MTT cytotoxicity assay (% kill), HuTu-80; type: cell-based, human; conditions: 1 h exposure
Description: (§2) The following human tumor cell lines were obtained and cultured in sextuplicate microwells at 37° C. and 5% CO2 in humidified air and in 10% FBS in Eagles MEM: SK—N—FI, SK—N-AS, LS-174T, WiDr, HuTu-80, MCF7, NCI-AR, MES-Sar, and PL-45. Cells from each cell line were separately treated with an amount of one of the compounds of Formula I, II, or III (see Table 1). Cells were exposed to each compound (0.1 μg/mL or 1.0 μg/mL) for one hour or 24 hours, rinsed with drug-free media, and incubated for an additional five days. The number of viable cells after five days was measured using an MTT (3-(4,5-dimethylthiazol-2-yl)-2,5-diphenyltetrazolium bromide) assay (see, e.g., Mosmann, J. Immunol. Methods, 65(1-2), 55-63 (1983)).
(§3) The cytotoxicity of each drug was determined and expressed as the percent of cells killed (“% kill”).

MCF7 = assay: MTT cytotoxicity assay (% kill), MCF7; type: cell-based, human; conditions: 1 h exposure
Description: as §2, §3

NCI-AR = assay: MTT cytotoxicity assay (% kill), NCI-AR; type: cell-based, human; conditions: 1 h exposure
Description: as §2, §3

MES-Sar = assay: MTT cytotoxicity assay (% kill), MES-Sar; type: cell-based, human; conditions: 1 h exposure
Description: as §2, §3

PL-45 = assay: MTT cytotoxicity assay (% kill), PL-45; type: cell-based, human; conditions: 1 h exposure
Description: as §2, §3

tumor cells = assay: Inhibition of tumor growth in vivo (% T/C) in SCID mice
Description: SCID mice weighing more than 17 grams were supplied food and water ad libidum. The animals were pooled, implanted subcutaneously with tumor cells, and pooled again before distribution to treatment and control groups. Treatment was started when the tumors were palpable (i.e., 10 days after inoculation). Mice received one of four doses (i.e., 1.6, 1.2, 0.8, and 0.4 mg/mouse) of the inventive compound. Each dose was administered intravenously via the tail vein once per day for 5 days. Mice were killed when their tumors reached 1500 mm^3.
Tumor weights were estimated from two-dimensional caliper measurements performed twice a week according to the following formula: Tumor Weight (mg)=(a×b^2)/2 in which a and b are the tumor length and width, respectively, in millimeters.
Therapeutic efficacy was measured as the % T/C value (T=treated, C=control), which was determined each time a tumor measurement was made. The median tumor weight of the treatment and control groups was determined. A % T/C value equal to or less than 50% indicates antitumor activity. A % T/C value of <10% indicates highly significant antitumor activity, and is the level used by the National Cancer Institute (NCI) to justify a clinical trial if toxicity, formulation and other requirements are met. A weight loss of greater than 20% (mean of group) or greater than 20% drug deaths indicates an excessively toxic dose.

COC(=O)[C@@]12OC[C@@]34C1[C@@H](OC(=O)CC(O)(C(C)C)C(C)C)C(=O)O[C@@H]3C[C@H]1C(C)=C(O)C(=O)C[C@]1(C)[C@H]4[C@@H](O)[C@@H]2O (some centres unmarked) [15-O-(3′-hydroxy-3′-isopropyl-4′-methylpentanoyl)bruceolide]
% Kill, SK-N-AS (SK-N-AS; 0.1 μg/mL): 0% | % Kill, SK-N-AS (SK-N-AS; 1.0 μg/mL): 3% | % Kill, LS-174T (LS-174T; 0.1 μg/mL): 0% | % Kill, LS-174T (LS-174T; 1.0 μg/mL): 13% | % kill, HuTu-80 (HuTu-80; 0.1 μg/mL): 0% | % kill, HuTu-80 (HuTu-80; 1.0 μg/mL): 7% | % kill, MCF7 (MCF7; 0.1 μg/mL): 12% | % kill, MCF7 (MCF7; 1.0 μg/mL): 31% | % kill, NCI-AR (NCI-AR; 0.1 μg/mL): 0% | % kill, NCI-AR (NCI-AR; 1.0 μg/mL): 0% | % kill, MES Sar (MES-Sar; 0.1 μg/mL): 0% | % kill, MES Sar (MES-Sar; 1.0 μg/mL): 0% | % kill, PL-45 (PL-45; 0.1 μg/mL): 0% | % kill, PL-45 (PL-45; 1.0 μg/mL): 0% | % T/C (tumor cells; 0.4 mg/mouse intravenously once per day for 5 days (lower dose group)): 31% | % T/C (tumor cells; 0.8 mg/mouse intravenously once per day for 5 days (higher dose group of the surviving two)): 16% | mortality (tumor cells; highest two doses (1.6 and 1.2 mg/mouse) intravenously once per day for 5 days): died
